Test system: 8XTBD luciferase reporter (YAP) in HEK293T cells
Assay: YAP Reporter Assay
Type: cell-based
Conditions: Homo sapiens, HEK-293T; HEK293T cells stably transfected with 8XTBD luciferase reporter and pRLTK; 24-hr incubation; top concentration 3 μM; read-out: Firefly Luciferase IC50

CC(=O)c1nnc(-c2ccccc2Nc2ccc(C(F)(F)F)cc2)o1 [Compound 85, 1-(5-(2-((4-(trifluoromethyl)phenyl)amino)phenyl)-1,3,4-oxadiazol-2-yl)ethan-1-one] and O=C(NO)c1nnc(-c2ccccc2Nc2ccc(C(F)(F)F)cc2)o1 [Compound 14, N-hydroxy-5-(2-((4-(trifluoromethyl)phenyl)amino)phenyl)-1,3,4-oxadiazole-2-carboxamide] cannot be ordered by IC50: < 100 nM for the first, < 100 nM for the second.

CNC1(c2nnc(-c3ccccc3Nc3ccc(C(F)(F)F)cc3)o2)CC1 [Compound 153, 2-(5-(1-(methylamino)cyclopropyl)-1,3,4-oxadiazol-2-yl)-N-(4-(trifluoromethyl)phenyl)aniline] and NC(=O)NC1(c2nnc(-c3ccccc3Nc3ccc(C(F)(F)F)cc3)o2)CC1 [Compound 62, 1-(1-(5-(2-((4-(trifluoromethyl)phenyl)amino)phenyl)-1,3,4-oxadiazol-2-yl)cyclopropyl)urea] fall in the same range of IC50: 100 to 1000 nM for the first, 100 to 1000 nM for the second.

CC1(c2nnc(-c3ccccc3Nc3ccc(C(F)(F)F)cc3)o2)CCO1 (centres unmarked) [Compound 180, 2-(5-(2-methyloxetan-2-yl)-1,3,4-oxadiazol-2-yl)-N-(4-(trifluoromethyl)phenyl)aniline] and CC1(c2nnc(-c3ccccc3Nc3ccc(C(F)(F)F)cc3)o2)CCCO1 (centres unmarked) [Compound 178, 2-(5-(2-methyltetrahydrofuran-2-yl)-1,3,4-oxadiazol-2-yl)-N-(4-(trifluoromethyl)phenyl)aniline] cannot be ordered by IC50: < 100 nM for the first, < 100 nM for the second.

First: Cc1oncc1-c1nnc(-c2ccccc2Nc2ccc(C(F)(F)F)cc2)o1 [Compound 40, 2-(5-(5-methylisoxazol-4-yl)-1,3,4-oxadiazol-2-yl)-N-(4-(trifluoromethyl)phenyl) aniline]
Second: CN(C)c1nnc(-c2ccccc2Nc2ccc(C(F)(F)F)cc2)o1 [Compound 6, N,N-dimethyl-5-(2-((4-(trifluoromethyl)phenyl)amino)phenyl)-1,3,4-oxadiazol-2-amine]
The IC50 of the first is lower: 100 to 1000 nM for the first, 1000 to 5000 nM for the second.

First: CNCC(C)(C)c1nnc(-c2ccccc2Nc2ccc(C(F)(F)F)cc2)o1 [Compound 144, 2-(5-(2-methyl-1-(methylamino)propan-2-yl)-1,3,4-oxadiazol-2-yl)-N-(4-(trifluoromethyl)phenyl)aniline]
Second: CC(C)(C(N)=O)c1nnc(-c2ccccc2Nc2ccc(C(F)(F)F)cc2)o1 [Compound 162, 2-methyl-2-(5-(2-((4-(trifluoromethyl)phenyl)amino)phenyl)-1,3,4-oxadiazol-2-yl)propanamide]
The IC50 of the first is higher: 100 to 1000 nM for the first, < 100 nM for the second. The second is the more potent here.

Compared with N#CC1(Cc2nnc(-c3ccccc3Nc3ccc(C(F)(F)F)cc3)o2)CC1 [Compound 88, 1-((5-(2-((4-(trifluoromethyl)phenyl)amino)phenyl)-1,3,4-oxadiazol-2-yl)methyl)cyclopropane-1-carbonitrile], OC1(c2nnc(-c3ccccc3Nc3ccc(C(F)(F)F)cc3)o2)CC1 [Compound 44, 1-(5-(2-((4-(trifluoromethyl)phenyl)amino)phenyl)-1,3,4-oxadiazol-2-yl)cyclopropanol] is lower in IC50: 100 to 1000 nM for the first, < 100 nM for the second. The second is the more potent here.

CN(C#N)C(C)(C)c1nnc(-c2ccccc2Nc2ccc(C(F)(F)F)cc2)o1 [Compound 158, N-methyl-N-(2-(5-(2-((4-(trifluoromethyl)phenyl)amino)phenyl)-1,3,4-oxadiazol-2-yl)propan-2-yl)cyanamide] and CC(Cc1nnc(-c2ccccc2Nc2ccc(C(F)(F)F)cc2)o1)N(C)C#N (centres unmarked) [Compound 149, N-methyl-N-(1-(5-(2-((4-(trifluoromethyl)phenyl)amino)phenyl)-1,3,4-oxadiazol-2-yl)propan-2-yl)cyanamide] cannot be ordered by IC50: < 100 nM for the first, < 100 nM for the second.

First: COc1nnc(-c2ccccc2Nc2ccc(C(F)(F)F)cc2)o1 [Compound 73, 2-(5-methoxy-1,3,4-oxadiazol-2-yl)-N-(4-(trifluoromethyl)phenyl)aniline]
Second: CSc1nnc(-c2ccccc2Nc2ccc(C(F)(F)F)cc2)o1 [Compound 72, 2-(5-(methylthio)-1,3,4-oxadiazol-2-yl)-N-(4-(trifluoromethyl)phenyl)aniline]
The IC50 of the first is lower: < 100 nM for the first, 100 to 1000 nM for the second.

First: CC(O)(CCO)c1nnc(-c2ccccc2Nc2ccc(C(F)(F)F)cc2)o1 (centres unmarked) [Compound 179, 3-(5-(2-((4-(trifluoromethyl)phenyl)amino)phenyl)-1,3,4-oxadiazol-2-yl)butane-1,3-diol]
Second: OCCNc1nnc(-c2ccccc2Nc2ccc(C(F)(F)F)cc2)o1 [Compound 10, 2-((5-(2-((4-(trifluoromethyl)phenyl)amino)phenyl)-1,3,4-oxadiazol-2-yl)amino)ethan-1-ol]
The IC50 of the first is lower: < 100 nM for the first, 100 to 1000 nM for the second.

OC(CBr)c1nnc(-c2ccccc2Nc2ccc(C(F)(F)F)cc2)o1 (centres unmarked) [Compound 121, 2-bromo-1-(5-(2-((4-(trifluoromethyl)phenyl)amino)phenyl)-1,3,4-oxadiazol-2-yl)ethan-1-ol] and CC(O)c1nnc(-c2ccccc2Nc2ccc(C(F)(F)F)cc2)o1 (centres unmarked) [Compound 41, 1-(5-(2-((4-(trifluoromethyl)phenyl)amino)phenyl)-1,3,4-oxadiazol-2-yl)ethanol] cannot be ordered by IC50: < 100 nM for the first, < 100 nM for the second.

First: NC1(c2nnc(-c3ccccc3Nc3ccc(C(F)(F)F)cc3)o2)CC1 [Compound 58, 2-(5-(1-aminocyclopropyl)-1,3,4-oxadiazol-2-yl)-N-(4-(trifluoromethyl)phenyl) aniline]
Second: CN(C#N)C1(c2nnc(-c3ccccc3Nc3ccc(C(F)(F)F)cc3)o2)CC1 [Compound 155, N-methyl-N-(1-(5-(2-((4-(trifluoromethyl)phenyl)amino)phenyl)-1,3,4-oxadiazol-2-yl)cyclopropyl)cyanamide]
The IC50 of the first is higher: 100 to 1000 nM for the first, < 100 nM for the second. The second is the more potent here.

COCC(C)NC(=O)c1nnc(-c2ccccc2Nc2ccc(C(F)(F)F)cc2)o1 (centres unmarked) [Compound 188, N-(1-methoxypropan-2-yl)-5-(2-((4-(trifluoromethyl)phenyl)amino)phenyl)-1,3,4-oxadiazole-2-carboxamide] and O=C(NC1CC1)c1nnc(-c2ccccc2Nc2ccc(C(F)(F)F)cc2)o1 [Compound 195, N-cyclopropyl-5-(2-((4-(trifluoromethyl)phenyl)amino)phenyl)-1,3,4-oxadiazole-2-carboxamide] fall in the same range of IC50: 100 to 1000 nM for the first, 100 to 1000 nM for the second.

Compound CCNCc1nnc(-c2ccccc2Nc2ccc(C(F)(F)F)cc2)o1 [Compound 100, 2-(5-((ethylamino)methyl)-1,3,4-oxadiazol-2-yl)-N-(4-(trifluoromethyl)phenyl)aniline] has an IC50 of 100 to 1000 nM.

Same assay, conditions: Homo sapiens, HEK-293T; […]; 24-hr incubation; top concentration 3 μM; read-out: Firefly Luciferase IC50

First: CS(=O)(=O)Nc1nnc(-c2ccccc2Nc2ccc(C(F)(F)F)cc2)o1 [Compound 38, N-(5-(2-((4-(trifluoromethyl)phenyl)amino)phenyl)-1,3,4-oxadiazol-2-yl)methanesulfonamide]
Second: CS(=O)(=O)C1(c2nnc(-c3ccccc3Nc3ccc(C(F)(F)F)cc3)o2)CC1 [Compound 66, 2-[5-(1-methylsulfonylcyclopropyl)-1,3,4-oxadiazol-2-yl]-N-[4-(trifluoromethyl)phenyl]aniline]
The IC50 of the first is higher: 100 to 1000 nM for the first, < 100 nM for the second. The second is the more potent here.

OC(CCl)Cc1nnc(-c2ccccc2Nc2ccc(C(F)(F)F)cc2)o1 (centres unmarked) [Compound 79, 1-chloro-3-(5-(2-((4-(trifluoromethyl)phenyl)amino)phenyl)-1,3,4-oxadiazol-2-yl)propan-2-ol] and CCNC(=O)c1nnc(-c2ccccc2Nc2ccc(C(F)(F)F)cc2)o1 [Compound 197, N-ethyl-5-(2-((4-(trifluoromethyl)phenyl)amino)phenyl)-1,3,4-oxadiazole-2-carboxamide] cannot be ordered by IC50: < 100 nM for the first, < 100 nM for the second.

From patent publication US11661403B2, “Oxadiazole compounds” (Vivace Therapeutics, Inc., priority 2018, dated 2023)
